The source of these data is publication PMC6325219, “Preclinical Characterization of NVR 3-778, a First-in-Class Capsid Assembly Modulator against Hepatitis B Virus” (Antimicrobial Agents and Chemotherapy, 2018).

The subject of assay [1] is HBV rtL180M/M204V variant. The experiment in a line: microbe, parasite or virus in culture. Type of assay: cell-based, hepatitis B virus. An excerpt:
(§1) Plasmids containing HBV DNA with rtN236T, rtA181V, rtA181V/N236T, and rtL180M/M204V/N236T were generated using the GT B WT or rtL180M/M204V DNA-containing plasmids and site-directed mutagenesis (Agilent Technologies). A panel of nine different HBV core variants (cW102G, cW102R, cI105V, cI105L, cI105T, cT109S, cT109M, cT109I, and cY118F) was generated, also using the GT B WT DNA-containing plasmid and site-directed mutagenesis. The full-length genome from all plasmids was sequenced to confirm that only the intended nucleotide change(s) was present. Finally, HBV sequences from genotypes A (GenBank accession number AF305422), C (GenBank accession number AB033550), D (GenBank accession number V01460), E (GenBank accession number AB274971), F (GenBank accession number AB036912), G (GenBank accession number AF160501), and H (GenBank accession number AB375159) were gene synthesized as 1.1 times the genome length together with part of the CMV promoter at the 5′ end. The gene-synthesized piece was validated by sequencing and subcloned into the pCMV-HBV plasmid using the restriction sites SalI and NdeI (Genewiz, USA).
(§2) HepG2 cells were seeded in 96-well plates at a density of 20,000 cells/well and allowed to attach overnight at 37°C in 5% CO2. Cells were cotransfected with the HBV plasmids (100 ng/well) and a Gaussia expression plasmid (10 ng/well) (Thermo Scientific) using the Lipofectamine LTX Plus transfection reagent (Life Technologies). Transfection mixtures were removed after overnight incubation, and cells were treated with serially diluted NVR 3-778 at a final dimethyl sulfoxide (DMSO) concentration of 0.5%. After 3 days of incubation with the compound, the supernatants were collected and secreted Gaussia luciferase was measured using a Gaussia Flash luciferase assay kit (Thermo Scientific). Cells were lysed with 0.33% NP-40 (Thermo Scientific), and the cytoplasmic fractions were treated with 2 units of Turbo DNase (Invitrogen) and 10 units of S7 nuclease (Roche) in CutSmart buffer (New England Biolabs) containing 25 µM CaCl2 (G-Biosciences) at 37°C for 60 min, followed by inactivation of the enzymes at 75°C for 15 min. Samples were diluted into lysis buffer (Affymetrix) containing 2.5 µg proteinase K (Affymetrix) at 50°C for 40 min. Intracellular encapsidated HBV DNA was denatured for 30 min at 25°C in 0.2 M NaOH (Sigma) and incubated with HBV DNA probes designed to hybridize to the minus-strand HBV DNA (Affymetrix). The denatured DNA was subsequently detected using a QuantiGene assay kit, according to the branched DNA (bDNA) assay recommended by the manufacturer (Affymetrix).
(§3) To determine percent inhibition, the mean background signal from wells containing only culture medium was subtracted from the signal for all other samples, and percent inhibition at each compound concentration was calculated by normalization to the signals for HepG2.2.15 cells treated with 0.5% DMSO. […] Both CalcuSyn and MacSynergy II (Ann Arbor, MI) software were used to evaluate the effect of compound combinations ([27]). After data analysis at the 95% confidence level, values of synergy or antagonism of <25 µM^2% were defined as insignificant, those between 25 and 50 µM^2% were defined as minor, those between 50 and 100 µM^2% were defined as moderate, and those of >100 µM^2% were defined as strong.

Assay [2] deals with HBV rtL180M/M204V/N236T variant. In words: microbe, parasite or virus in culture. In kind it is cell-based, hepatitis B virus.
Excerpt: as §1, §2, §3

For assay [3], the system named is HBV core protein variant I105V. The experiment in a line: Transient-transfection antiviral study in HepG2 cells, core variant I105V. In kind it is cell-based, hepatitis B virus. To be noted: for EC50 FC, I105V: ratio of mean EC50 for core variant over wild-type HBV.
Description: Cells were cotransfected with the HBV plasmids (100 ng/well) and a Gaussia expression plasmid (10 ng/well) (Thermo Scientific) using the Lipofectamine LTX Plus transfection reagent (Life Technologies). Transfection mixtures were removed after overnight incubation, and cells were treated with serially diluted NVR 3-778 at a final dimethyl sulfoxide (DMSO) concentration of 0.5%. After 3 days of incubation with the compound, the supernatants were collected and secreted Gaussia luciferase was measured using a Gaussia Flash luciferase assay kit (Thermo Scientific). […] Samples were diluted into lysis buffer (Affymetrix) containing 2.5 µg proteinase K (Affymetrix) at 50°C for 40 min. Intracellular encapsidated HBV DNA was denatured for 30 min at 25°C in 0.2 M NaOH (Sigma) and incubated with HBV DNA probes designed to hybridize to the minus-strand HBV DNA (Affymetrix). The denatured DNA was subsequently detected using a QuantiGene assay kit, according to the branched DNA (bDNA) assay recommended by the manufacturer (Affymetrix).
The subject of the next assay is HBV. In words: De novo infection study using PHH. To be noted: Hepatitis B virus. Type of assay: cell-based. As to the method: Cryopreserved PHH (Life Technologies) were seeded at 40,000 cells/well 1 day before infection. The HBV inoculum, concentrated from the supernatants of HepG2.2.15 cells, was prepared at 200 genome equivalents/cell in PHH medium (DMEM containing 10% FBS and a supplement cocktail containing HEPES, L-proline, insulin epidermal growth factor, dexamethasone, and ascorbic acid-2-phosphate, as previously described) with 2% DMSO and 4% polyethylene glycol (PEG) 8000 (Sigma). Compounds were serially diluted in DMSO at 50-fold strength and added to PHH medium containing the HBV inoculum, prior to infecting the PHH. After overnight incubation, the infection mixtures were removed and the cells were replenished with PHH medium containing freshly diluted compounds. On day 5 and day 8 postinfection, the media containing the compounds were removed and the cells were replenished with PHH medium containing freshly diluted compounds. Supernatants and cells were harvested for antiviral and viability assays on day 11 postinfection. HBV DNA, HBsAg, and HBeAg were determined from the supernatants of infected PHH using bDNA assays (Affymetrix) and HBsAg or HBeAg chemiluminescence immunoassay kits (Autobio), as recommended by the manufacturers. Intracellular total HBV RNA mRNA and host mRNA levels were monitored by using the QuantiGene assays (Affymetrix) and probe sets that hybridized to the X region, which is common to all HBV transcripts, and the host β-actin mRNA, respectively.

Setting [4] is: ratio of mean EC50 against variant over WT HBV, HepG2 cells.
[5] abbreviates: 264 h, PHH from three donors, compound added with inoculum, 11 days, read-out: EC50, HBV DNA.
Where [6] appears, read: 264 h, PHH from three donors, compound added with inoculum, 11 days, read-out: EC50, HBeAg.
The mark [7] stands for this setting: 264 h, PHH from three donors, compound added with inoculum, 11 days, read-out: EC50, HBsAg.
The mark [8] stands for this setting: 264 h, PHH from three donors, compound added with inoculum, 11 days, read-out: EC50, intracellular HBV RNA.
Setting [9] is: 264 h, PHH from three donors, compound added with inoculum, 11 days, read-out: EC90, HBV DNA.
Setting [10] is: 264 h, PHH from three donors, compound added with inoculum, 11 days, read-out: EC90, HBeAg.
Where [11] appears, read: 264 h, PHH from three donors, compound added with inoculum, 11 days, read-out: EC90, HBsAg.
[12] abbreviates: 264 h, PHH from three donors, compound added with inoculum, 11 days, read-out: EC90, intracellular HBV RNA.

SMILES strings stand for the structures. Where two headings read alike, the source gives them in different places. Marks after values point to notes of the source that are not given here. A value given as a limit tells only on which side of the number the result lay.

For `O=C(Nc1cc(F)c(F)c(F)c1)c1ccc(F)c(S(=O)(=O)N2CCC(O)CC2)c1` [NVR 3-778], the “EC50 fold change, rtL180M/M204V” value in assay [1] (setting [4]) was 1.3 ± 0.6^d fold. Besides, the “EC50 fold change, rtL180M/M204V/N236T” value in assay [2] (setting [4]) was 1.4 ± 0.5^d fold. Besides, the EC50 in assay [3] (Hepatitis B virus, HepG2, read-out: EC50, core variant I105V) is 0.41 ± 0.11 µM; in the assay on HBV (setting [5]), 0.81 ± 0.18 µM; with HBV (setting [6]), 4.5 ± 0.82 µM; in the assay with HBV (setting [7]), 4.8 ± 0.98 µM; in the assay with HBV (setting [8]), 3.7 ± 0.22 µM; in the assay with HBV (PHH, de novo infection, range over HBsAg, HBeAg, HBV RNA, read-out: EC50 values against the production of HBV antigens and intracellular HBV RNA), 3.7 to 4.8 µM. In addition, the “EC50 FC, I105V” value in assay [3] came out at 1.8 fold. The EC90 in the assay on HBV (setting [9]) turned out to be 5.4 ± 2 µM; in the assay on HBV (setting [10]) it was 8.9 ± 1.2 µM; with HBV (setting [11]) it was 10.2 ± 3 µM; with HBV (setting [12]), 11.6 ± 2.7 µM.
As for `Nc1ccn([C@@H]2CS[C@H](CO)O2)c(=O)n1` [LMV, lamivudine, reference compound], the EC50 in assay [1] (Hepatitis B virus, HepG2, read-out: EC50 (mean), rtL180M/M204V variant) was > 100 µM; in assay [2] (Hepatitis B virus, HepG2, read-out: EC50, rtL180M/M204V/N236T variant), > 100 µM; in the assay on HBV (setting [5]) it was 0.016 ± 0.01 µM; in the assay on HBV (setting [6]), > 30 µM; with HBV (setting [7]), > 30 µM; with HBV (setting [8]), > 30 µM. Besides, the “EC50 FC, I105V” value in assay [3] is 0.84 fold. Moreover, the EC90 was 0.066 ± 0.01 µM in the assay on HBV (setting [9]), > 30 µM in the assay on HBV (setting [10]), > 30 µM in the assay on HBV (setting [11]) and > 30 µM in the assay with HBV (setting [12]).

One may read the EC90 as the point of the concentration-response curve where the effect stands at 90%.
